The test system of series [1] is Leishmania major (amastigote). The series is described as follows: Antiparasitic activity in vitro (intracellular amastigote). Type of series: cell-based. The settings on record: intracellular amastigotes. On the procedure: (§1) Half maximal inhibitory concentration (IC50) required to inhibit 50% of the in vitro cell growth or viability were determined with broth microdilution method according to the European committee on antimicrobial susceptibility testing recommendations (protocols E.DEF 7.3.1 for Candida spp.) and according to a certified internal procedure to the laboratory IICiMed (for Leishmania spp.) (Le Pape, et al. Acta Parasitologica 2002, 47, 79-81). […]
(§2) Growth or cell viability was performed on flat-bottomed microplate, firstly appreciated by visual reading and always confirmed using a Bio-Rad iMark microplate absorbance reader to measure the absorbance of the plate at 595 nm or using a resazurin salt cell viability assay with a Packard fluorocount microplate reader BF10000 with halogen light source to measure the fluorescence at 590 nm after excitation at 530 nm. Results represent the mean (±the standard error of the mean SEM if available) calculated from at least two independent experiments performed each in triplicate on one or several strains. […]

The subject of series [2] is Cryptococcus neoformans. The experiment in a line: In vivo anti-Cryptococcus activity in Galleria mellonella model (C. neoformans). The following applies: dose 2 mg·kg-1. On the procedure: (§3) This model also constitutes a screening model and a good alternative to the traditional studies on murine models for the evaluation of the activity of antifungal molecules. The AmB prodrug of the invention (Compound 1) was evaluated for its antifungal efficacy against Cryptococcus neoformans and Cr. gattii. […] In the absence of treatment, all larvae died after 6 days and 5 days, respectively. For Cryptococcus neoformans, at a dose of 2 mg·kg-1, amphotericin B led to 50% survival and its prodrug was also effective with a percentage survival of 30% at an equivalent dose.

Another series deals with Galleria mellonella. The series is described as follows: Toxicity on the Galleria mellonella model. The format is in vivo. The following applies: uninfected larvae, dose 2 mg·kg-1. On the procedure: The larval model represents a rapid and practical tool for assessing the intrinsic toxicity of an active substance. See Le Pape et al, 2019, Int J Infect Dis. 2019 April; 81:85-90 for more details concerning the model. The larvae were incubated with AmB, AmB prodrug (Compound 1) and vehicle. At the dose of 2 mg·kg-1, AmB was very toxic leading to a 40% survival of the treated group. In comparison, at an equivalent dose, its prodrug was much less toxic with a percentage survival of 80%.

The test system of another series is HeLa cells. The series is described as follows: Human cells cytotoxicity, HeLa. Type of series: cell-based. The following applies: for IC50: HeLa cell line. On the procedure:
(§4) Half maximal inhibitory concentration (IC50) required to inhibit 50% of the in vitro cell growth or viability were determined with broth microdilution method according to the European committee on antimicrobial susceptibility testing recommendations (protocols E.DEF 7.3.1 for Candida spp.) and according to a certified internal procedure to the laboratory IICiMed (for Leishmania spp.) (Le Pape, et al. Acta Parasitologica 2002, 47, 79-81).
(§5) The different strains, isolates and cell lines used are listed below: • Candida albicans clinical strain (IICiMed number CAAL93) • Candida albicans clinical strain (IICiMed number CAAL121) • Candida albicans reference strain SC5314 (IICiMed number CAAL146) • Leishmania major reference isolate MHOM/IL/81/BNI (IICiMed number LEMA1) • A549 cell line reference ATCC® CCL-185 (carcinoma epithelial cells from lung) • HeLa cell line reference
(§6) Growth or cell viability was performed on flat-bottomed microplate, firstly appreciated by visual reading and always confirmed using a Bio-Rad iMark microplate absorbance reader to measure the absorbance of the plate at 595 nm or using a resazurin salt cell viability assay with a Packard fluorocount microplate reader BF10000 with halogen light source to measure the fluorescence at 590 nm after excitation at 530 nm. Results represent the mean (±the standard error of the mean SEM if available) calculated from at least two independent experiments performed each in triplicate on one or several strains. The values are expressed with the corresponding pathogens and are represented in μM.

Series [3] deals with Cryptococcus neoformans. The series is described as follows: Antifungal activity in vitro. The format is cell-based. On the procedure: as §4, §6
The test system of a further series is Cryptococcus gattii. The series is described as follows: Antifungal activity in vitro. The format is cell-based. On the procedure:
as §4, §6

Series [4] relates to Candida albicans (filamented yeasts). The experiment in a line: Antifungal activity in vitro, broth microdilution (filamented yeasts). Type of series: cell-based. The following applies: mean ± SEM. On the procedure: as §1, §2
A further series has as its system Cr. gattii. The series is described as follows: In vivo anti-Cryptococcus activity in Galleria mellonella model (Cr. gattii). On the procedure: as §3
In the case of Cr. gattii, amphotericin B and the prodrug led to 30% and 20% survival respectively.

For series [5], the system named is Candida albicans (blastospores). The experiment in a line: Antifungal activity in vitro, broth microdilution (blastospores). Type of series: cell-based. The following applies: mean ± SEM. On the procedure: as §1, §2
For orientation: In broth dilution the organism is exposed to a series of concentrations in liquid medium.

The subject of series [6] is Leishmania major (promastigote). The experiment in a line: Antiparasitic activity in vitro (promastigote). The following applies: mean ± SEM. Type of series: cell-based. On the procedure:
as §1, §2

Series [7] in a line: Aqueous stability in the absence of enzyme. The following applies: for aqueous stability (in words): aqueous medium/buffer, 37° C., absence of the enzyme. The format is physicochemical. On the procedure: Enzymatic Release and Aqueous Stability In vitro enzymatic hydrolysis was carried out with commercial β-N-acetylhexosaminidase from Canavalia ensiformis E.C. 3.2.1.52 (22.8 units·mg^−1 protein, suspension in 2.5 M ammonium sulfate, pH 7.0). Using a VWR® Cooling Thermal Shake Touch and monitoring by analytical LC. Prodrug 1 was incubated with the enzyme according to the table below: […]

Series [8] is described as follows: Human cells cytotoxicity, hPBMC. The format is cell-based. The following applies: human peripheral blood mononuclear cells (hPBMC); human PBMC.
For a further series, the system named is A549. The experiment in a line: Human cells cytotoxicity, A549. The format is cell-based. The following applies: pneumocyte line A549. On the procedure:
as §1, §2

A short description of series [9]: Human cells cytotoxicity, A549. The format is cell-based. The following applies: human, A549 cells (ATCC CCL-185, lung carcinoma epithelial cells), pneumocyte line A549. On the procedure:
as §1, §2

Series [10] is described as follows: Human cells cytotoxicity, HeLa. Type of series: cell-based. The settings on record: human, HeLa cells; HeLa cell line. On the procedure: as §4, §5, §6
Series [11] has as its system C. albicans blastoconidia. The series is described as follows: Mouse model of C. albicans blastoconidia infection. The format is in vivo, mice. The settings on record: 1 mg/kg i.p. once daily for 3 days, listed as AmB prodrug. On the procedure:
Mice were immunosuppressed by subcutaneous injection of 30 mg/kg prednisolone one day before challenge. On day 0, mice were infected intravenously C. albicans blastoconidia. One hour after infection, mice were treated intraperitoneally once daily with 1 mg/kg body weight of Fungizone®, Ambisome® and AmB prodrug (Compound 1, FIG. 1A) for 3 consecutive days. The control group received sterile distillated water (vehicle). Survival was monitored for 14 days post inoculation. Differences in cohorts were analyzed by the log-rank test. On day 14, all mice were euthanized and their kidneys were excised and weighed. Tissues were homogenized and serially diluted 10- to 1000-fold in sterile saline, then plated onto Sabouraud dextrose agar and incubated for 48 h to determine the number of CFUs. Tissue fungal burden was expressed as average log CFUs/gram of tissue. Differences in mean CFUs in kidneys were compared with the vehicle control using a one-way ANOVA with a post-hoc Tukey test. A P value of <0.05 was considered statistically significant.

Molecules are shown by their SMILES. “Also recorded” adds a separate entry of the source. Where two headings read alike, the source gives them in different places. Some results are limits rather than exact numbers.

The term IC50 denotes the point on the concentration scale where inhibition reaches its midpoint.

`C[C@@H]1[C@H](O)[C@@H](C)/C=C/C=C/C=C/C=C/C=C/C=C/C=C/[C@H](O[C@@H]2O[C@H](C)[C@@H](O)[C@H](N)[C@@H]2O)C[C@@H]2O[C@](O)(C[C@@H](O)C[C@@H](O)[C@H](O)CC[C@@H](O)C[C@@H](O)CC(=O)O[C@H]1C)C[C@H](O)[C@H]2C(=O)O` [Amphotericin B, amphotericin B, reference compound]: the IC50 in series [1] is below 100 nM; in the series with HeLa cells, 23.29 ± 0.11 µM; in the series on HeLa cells (listed as AmB) it was around 23 µM; with Cryptococcus neoformans [3] it was 30 nM; with Cryptococcus gattii, 40 nM; in series [4] it was 310 ± 10 nM. Besides, the values for the IC50 in series [5] and in series [6] were 360 ± 40 nM and 310 ± 20 nM, respectively. Besides, the “percentage survival, larvae infected with Cryptococcus neoformans” value in the series with Cryptococcus neoformans [2] came out at 50%. For the same molecule, the “survival of the treated group (toxicity)” value with Galleria mellonella is 40%. Further, in the series on Cr. gattii, the “survival, larvae infected with Cr. gattii” value is recorded as 30%.

For `CC(=O)N[C@H]1[C@H](Oc2ccc(COC(=O)N[C@@H]3[C@H](O)[C@H](O[C@H]4/C=C/C=C/C=C/C=C/C=C/C=C/C=C/[C@H](C)[C@@H](O)[C@@H](C)[C@H](C)OC(=O)C[C@H](O)C[C@H](O)CC[C@@H](O)[C@H](O)C[C@H](O)C[C@]5(O)C[C@H](O)[C@@H](C(=O)O)[C@H](C4)O5)O[C@H](C)[C@H]3O)cc2[N+](=O)[O-])O[C@H](CO)[C@@H](O)[C@@H]1O` [Compound 1], the “aqueous stability (in words)” value in series [7] (listed as AmB prodrug) is given as “stable”; in series [7] (listed as prodrug), “stable”; in series [7] (listed as prodrug 1), “good aqueous stability”. Besides, the half-life in series [7] (aqueous solution without enzyme, aqueous, pH 7.4, 37° C., read-out: t1/2 aq, pH 7.4, 37° C.) was above 1440 min. Further, the half-maximal inhibitory concentration (IC50) is below 100 nM in series [1] (Leishmania major); above 50 µM in series [8]; above 100 µM in the series on A549; above 50 µM in series [9]; above 100 µM in series [10]; 250 nM in the series on Cryptococcus neoformans [3] (Cryptococcus neoformans). Moreover, the 50% inhibitory concentration (IC50) in the series with Cryptococcus gattii (Cryptococcus gattii) was 600 nM; in [4] (Candida albicans), 420 ± 10 nM; in [5] (Candida albicans) it was 430 ± 20 nM; in series [6] (Leishmania major) it was 270 ± 60 nM. The “percentage survival, larvae infected with Cryptococcus neoformans” value in the series on Cryptococcus neoformans [2] was determined as 30%. Moreover, the “survival of the treated group (toxicity)” value in the series with Galleria mellonella turned out to be 80%. The “toxicity on HELA cells (in words)” value in the series with HeLa cells is recorded as “does not exhibit any significant toxicity”. Also, the “fungal burden of the kidney” value in series [11] (day 14, vs control group) is “significantly reduction of the burden; also recorded: significant decrease in the kidney fungal load”. Also, the survival result in series [11] (immunosuppressed mice, 14 days monitoring, vs vehicle, 1 mg/kg) is given as “statically improved survival; also recorded: significant improvement in survival”. Further, in the series on Cr. gattii, the “survival, larvae infected with Cr. gattii” value came to 20%.

The values above are taken from US20230218652A1, “ANTIFUNGAL PRODRUGS” (CENTRE NATIONAL DE LA RECHERCHE SCIENTIFIQUE, priority 2020, published 2023).
